# According to US20220211699A1 (priority 2019, published 2022):
# Legend:
# [1] = test system: adult diabetic patients with painful distal symmetrical polyneuropathy; conditions: oral 50 or 100 mg/day; after 2 weeks of therapy; cited from earlier work
# [2] = test system: diabetic patients suffering from peripheral diabetic neuropathy; conditions: 100 mg/day in a divided dose; 6 diabetic patients; cited from earlier work
# [3] = test system: patients with diabetic neuropathy; experiment: Clinical study, SF-36 Mental Component Summary (MCS): positive risk of depression or anxiety; type: in vivo; conditions: Group 3
# Method: (§1) The clinical study was carried out on a population of 142 patients with diabetic neuropathy of both sexes and aged between 18 and 75 years. Patients were divided into three groups and submitted to a randomized, double blind, placebo-controlled, parallel-group clinical trial, with double-dummy modality for patients in group 2.
# (§2) Group 1 was treated with 20 mg trazodone (10 drops of 6% trazodone hydrochloride solution) three times a day for 8 weeks, for a total of 60 mg a day.
# (§3) Group 2 was treated with 10 mg trazodone (5 drops of 6% trazodone hydrochloride solution) three times a day for 8 weeks, for a total of 30 mg a day.
# (§4) Group 3 was treated with placebo, 10 drops of an oral solution three times a day for 8 weeks.
# (§5) During the ninth week, concluding the clinical trial, group 1 was treated with 10 mg trazodone three times daily for a total of 30 mg per day, while both group 2 and group 3 were treated with placebo.
# Gabapentin was administered in an incremental dosage for all patients treated according to the dosage regimen shown in Table 1 below using capsules containing 100 mg, 300 mg and 400 mg of commercially available gabapentin (Neurontin®, Pfizer). […]
# The results are expressed as a percentage of patients with a positive risk of depression or anxiety compared to the normal general population in which a normal value of […] is estimated.
# [4] = test system: patients with diabetic neuropathy; experiment: Clinical study, Brief Pain Inventory-Short Form (BPI-SF) pain self-assessment; type: in vivo; conditions: Group 3
# Method: as §1, §2, §3, §4, §5
# The 6% trazodone hydrochloride solution contained trazodone hydrochloride (6%), macrogol (35%), propylene glycol (30%), citric acid (0.5%), sucrose (0.15%), sodium hydroxide (0.125%), propyl gallate (0.10%), disodium edetate (0.05%), and purified water as needed at 100 mL. The placebo solution is identical to trazodone solution, but without active ingredient.
# Gabapentin was administered in an incremental dosage for all patients treated according to the dosage regimen shown in Table 1 below using capsules containing 100 mg, 300 mg and 400 mg of commercially available gabapentin (Neurontin®, Pfizer). The capsules contain lactose monohydrate, corn starch and talc as excipients, and E171 and […] color combinations.
# At the beginning of treatment and at the end of each treatment week, the patients under treatment completed the Brief Pain Inventory-Short Form (BPI-SF), which includes a set of questions relating to pain self-assessment (Zelman D C, et al., “Validation of a modified version of the pain inventory brief for painful diabetic peripheral neuropathy”, J. Pain Symptom Manage. 2005 April; 29(4):401-10).
# In particular, patients assessed the average pain intensity in the week prior to the assessment (issue 5) and at the time of the assessment (issue 6) on a scale from 0 to 10 where 0 represents “no pain” and 10 represents “more pain than you can imagine”.
# At each visit the evaluations were collected and processed in order to determine the deviation from the average value obtained for each group at the beginning of the treatment. The results were collected in the following Tables 3 and 4, from which the graphs shown in FIGS. 1 and 2 were obtained, respectively.
# [5] = Visit 1, placebo drops + gabapentin 300 mg/day
# [6] = Visit 2, placebo drops + gabapentin 600 mg/day
# [7] = Visit 3, placebo drops + gabapentin 900 mg/day
# [8] = Visit 4, placebo drops + gabapentin 1200 mg/day
# [9] = Visit 5, placebo drops + gabapentin 1800 mg/day
# [10] = Visit 6, placebo drops + gabapentin 2400 mg/day
# [11] = Visit 7, placebo drops + gabapentin 2400 mg/day
# [12] = Visit 8, placebo drops + gabapentin 2400 mg/day
# [13] = Visit 9, placebo drops + gabapentin
# [14] = placebo drops + incremental gabapentin
smiles,measurement,setting,value
"O=c1n(CCCN2CCN(c3cccc(Cl)c3)CC2)nc2ccccn12 [trazodone, 2-(3-[4-(3-chlorophenyl)piperazin-1-yl]propyl)-[1,2,4]triazole[4,3-a]pyridin-3(2H)-one]",patients with complete relief,[1],22.6%
same,patients with symptomatic relief,[1],61.3%
same,effect in pain relief and numbness,[2],good effect
"NCC1(CC(=O)O)CCCCC1 [gabapentin, 2-[1-(aminomethyl)cyclohexyl] acetic acid]",percentage of patients with a positive risk of depression or anxiety,"[3]; Visit 0 (beginning of treatment, baseline)",38%
same,percentage of patients with a positive risk of depression or anxiety,"[3]; Visit 8 (end of treatment), placebo drops + incremental gabapentin",29%
same,"Average pain assessment deviation from beginning of treatment (Visit 0), Question 5",[4]; [5],−1.0
same,"Average pain assessment deviation from beginning of treatment (Visit 0), Question 6",[4]; [5],−0.9
same,"Average pain assessment deviation from beginning of treatment (Visit 0), Question 5",[4]; [6],−1.7
same,"Average pain assessment deviation from beginning of treatment (Visit 0), Question 6",[4]; [6],−1.4
same,"Average pain assessment deviation from beginning of treatment (Visit 0), Question 5",[4]; [7],−2.1
same,"Average pain assessment deviation from beginning of treatment (Visit 0), Question 6",[4]; [7],−1.7
same,"Average pain assessment deviation from beginning of treatment (Visit 0), Question 5",[4]; [8],−1.9
same,"Average pain assessment deviation from beginning of treatment (Visit 0), Question 6",[4]; [8],−1.6
same,"Average pain assessment deviation from beginning of treatment (Visit 0), Question 5",[4]; [9],−2.1
same,"Average pain assessment deviation from beginning of treatment (Visit 0), Question 6",[4]; [9],−1.8
same,"Average pain assessment deviation from beginning of treatment (Visit 0), Question 5",[4]; [10],−2.4
same,"Average pain assessment deviation from beginning of treatment (Visit 0), Question 6",[4]; [10],−2.0
same,"Average pain assessment deviation from beginning of treatment (Visit 0), Question 5",[4]; [11],−2.4
same,"Average pain assessment deviation from beginning of treatment (Visit 0), Question 6",[4]; [11],−1.9
same,"Average pain assessment deviation from beginning of treatment (Visit 0), Question 5",[4]; [12],−2.5
same,"Average pain assessment deviation from beginning of treatment (Visit 0), Question 6",[4]; [12],−2.0
same,"Average pain assessment deviation from beginning of treatment (Visit 0), Question 5",[4]; [13],−2.5
same,"Average pain assessment deviation from beginning of treatment (Visit 0), Question 6",[4]; [13],−2.0
same,"Patients with 50% reduction (percentage of patients with a reduction of at least 50% compared to the initial value), question 5",[4]; [14],45.8%
same,"Sum deviations (sum of all the deviations obtained at each visit), question 5",[4]; [14],−117.6
